{"source": "patent US11582989B2", "about": "“Stress management in livestock” (Charles Sturt University, priority 2013, dated 2023)", "key": {"[1]": {"test": "Weight gain under mildly stressful management conditions", "format": "in vivo, mice", "conditions": "potassium bromide 250 mg/L in drinking water, 7 days, mild stress, vs control", "protocol": "(§1) A model system was established to induce stress in rodents by repeated behavioural testing using the AnyMaze™ rodent behavioural monitoring system. […] At the end of 7 days animals were subjected to a number of behavioural tests to assess level of stress. Weight gain was also analysed in the treatment group by recording body weight over the initial 7 day period.\n(§2) C57B16/Ola male mice at 5 weeks of age were purchased from MAS Client Services, Monash University, Melbourne, Australia. Animals were weighed at the start of the test period and daily for the duration of testing.\n(§3) Animals were weighed 3 times during the experiment (7 days). To initiate a mildly stressful situation, animals were exposed to novel arena, parallel rod and tremor tests using the mouse AnyMaze™ system (AnyMaze™, Stoelting, U.S.A.)."}, "C57B16/Ola male mice [2]": {"test_system": "C57B16/Ola male mice", "conditions": "potassium bromide 250 mg/L in drinking water for 7 days", "protocol": "as §1, §2, §3"}, "[3]": {"conditions": "sheep, 120 mg/kg", "protocol": "(§4) NaBr solution was administered through the cephalic vein using a 21 gauge needle over a period of 1 minute. Sheep were restrained in a seated position. Blood samples were collected at 0, 1, 5, 10, 15, 20 and 30 min and then at 1, 2, 3, 4, 6, 8, 10, 12, 24 h. Samples thereafter were collected at 12 h intervals to 240 h then at 24 h intervals to 336 h. A final sample was taken at 528 h. For each sample, the initial 2 mL of blood collected was discarded and a sterile syringe used to withdraw 5 mL of blood which was then placed into a plain separator blood tube (Vacuette: Greiner Bio-one). The cannulas were flushed with 3 mL of 5% heparinised saline after each collection. Each blood sample was left to stand for 30 min before centrifugation at 2000 g for 5 min. Serum was harvested and stored at −20° C. until analysis.\n(§5) KBr solution was administered via an orogastric tube, then flushed with 500 mL water. Blood samples were collected at 0, 1, 2, 3, 4, 6, 8, 10, 12, 24 h, then at 12 h intervals to 240 h, then at 24 h intervals to 336 h. A final sample was taken at 504 h. When collecting blood samples at 1 h through to 10 h the rumen was auscultated, over the caudo-dorsal blind sack, to determine if the high salt load affected rumen motility."}, "[4]": {"conditions": "sheep", "protocol": "as §4, §5\nAbsorbance was measured with a spectrophotometer at 440 nm."}, "[5]": {"conditions": "Podell and Fenner, 1993; cited from earlier work"}, "[6]": {"conditions": "cited from earlier work"}, "[7]": {"conditions": "horse (Raidal and Edwards, 2008); cited from earlier work"}, "C57B16/Ola male mice [8]": {"test_system": "C57B16/Ola male mice", "test": "Novel arena test, freezing response episodes (AnyMaze)", "format": "in vivo", "conditions": "potassium bromide 250 mg/L in drinking water for 7 days, vs normal drinking water", "protocol": "Animals were placed in the centre of an open arena which was unfamiliar to them and their rate and range of movement tracked by digital recognition software. Distance, speed and time spent immobile were analysed using the AnyMaze™ software. Results were compared statistically using SPSS™."}, "[9]": {"test": "Weight gain of Merino ewe lambs after mulesing and tail docking", "format": "in vivo"}, "[10]": {"conditions": "300 mg/kg LW oral bromide immediately prior to procedure, n=20"}}, "note": "Like-named read-outs stand apart in the source and are kept apart here.", "data": [{"smiles": "Br", "note": "[bromide]", "values": [{"measurement": "weight gain", "setting": "[1]", "value": "increased weight gain"}, {"measurement": "signs of ataxia", "setting": "C57B16/Ola male mice [2]", "value": "no signs of ataxia"}, {"measurement": "parallel rod touches", "setting": "C57B16/Ola male mice [2]; vs normal drinking water", "value": "significantly more touches"}, {"measurement": "adverse reactions", "setting": "[3]; IV and PO groups", "value": "No adverse reactions were noted"}, {"measurement": "duration of tranquilising effect post-injection", "setting": "[3]; IV", "value": "1 to 2", "unit": "h"}, {"measurement": "tranquilising effect (subjective observation)", "setting": "[3]; IV", "value": "mild tranquilising effect"}, {"measurement": "neurological effects", "setting": "[3]; PO group", "value": "no discernable neurological effects"}, {"measurement": "rumen motility", "setting": "[3]; PO group, auscultated 1 h to 10 h", "value": "no observed alteration in rumen motility"}, {"measurement": "t½", "setting": "[4]; IV", "value": 16.2, "unit": "days"}, {"measurement": "absorption following PO administration", "setting": "[4]; PO", "value": "absorbed rapidly"}, {"measurement": "half-life (t½)", "setting": "[4]; PO", "value": "approximately 14 days"}, {"measurement": "serum Br concentration range", "setting": "[4]; PO 120 mg/kg, for 14 d", "value": "200 to 400", "unit": "mg/L"}, {"measurement": "anticonvulsant range (Br concentration)", "setting": "[5]", "value": "1.0 to 2.0", "unit": "mg/mL"}, {"measurement": "t½", "setting": "[6]; dog (Trepanier and Babish, 1995)", "value": "12 to 24", "unit": "days"}, {"measurement": "bioavailability", "setting": "[6]; dog (Trepanier and Babish, 1995b)", "value": 40, "unit": "%"}, {"measurement": "estimated bioavailability", "setting": "[7]", "value": "32-38%"}, {"measurement": "t½", "setting": "[7]", "value": "approximately 3 d"}, {"measurement": "freezing response episodes in novel arena test", "setting": "C57B16/Ola male mice [8]", "value": "trend towards decreased freezing response episodes"}, {"measurement": "mean weight gain between day 7 and 14", "setting": "[9]; 300 mg/kg LW oral bromide", "value": "1.80 ± 0.30", "unit": "kg"}, {"measurement": "mean live weight on day 51", "setting": "[9]; [10]", "value": "22.17 ± 0.86", "unit": "kg"}, {"measurement": "mean weight gain after 51 days", "setting": "[9]; [10]", "value": "8.52 ± 0.57", "unit": "kg"}, {"measurement": "Day 1-7 mean weight change", "setting": "[9]; 300 mg/kg LW oral bromide, first seven days", "value": "-0.564 ± 1.29", "unit": "kg"}, {"measurement": "weight gain compared to untreated counterparts", "setting": "[9]; 300 mg/kg LW oral, after 14 days", "value": "enhanced weight gain"}, {"measurement": "live weight gain", "setting": "[9]; over 51 days", "value": 0.16, "unit": "kg per head per day"}, {"measurement": "weight gain per head per day", "setting": "[9]; over the 51 days of the trial", "value": 0.57}, {"measurement": "increase in production gain", "setting": "[9]; vs control, over 51 days", "value": 11, "unit": "%"}]}, {"smiles": "[Br-].[K+]", "note": "[potassium bromide]", "values": [{"measurement": "weight gain", "setting": "[1]", "value": "significant weight gain"}, {"measurement": "freezing response episodes in novel arena test", "setting": "C57B16/Ola male mice [8]", "value": "trend was towards decreased freezing episodes"}, {"measurement": "weight gain compared to untreated counterparts", "setting": "[9]; 300 mg/kg LW oral at time of mulesing and tail docking, over 51 days", "value": "trend towards increased weight gain"}]}]}
